Reference: US7700765B2, “DNA minor groove binding compounds” (University of Strathclyde, priority 2001, dated 2010)

Tests used:
[1] = test system: double-stranded DNA decamer CGACTAGTCG (SEQ ID NO:3); assay: Capillary electrophoresis ligand-DNA binding study; details: drug to DNA ratio up to 4:1
From the text: (§1) Typically, ligand binding results in a change in migration time of the DNA and sometimes a change in peak shape.
(§2) The following are shown in FIGS. 1-6: • (a) the experimental conditions, including the DNA sequence(s); • (b) the result of sequential addition of ligand; and • (c) the structure of the ligand being investigated. Key to FIGS. 1 to 6: • r0=electropherogram in the absence of drug • rX=(where X is 0.5, 1, 2, 3 or 4) electropherogram in the presence of drug, where the drug:DNA ratio (in terms of concentration) is X:1
(§3) This ratio corresponds to the binding ratio.

[2] = test system: MS1 sequence (radio-labelled DNA, SEQ ID NO:6); assay: DNA footprinting (DNase I); format: binding; details: concentration of 0.03 μM
Experimental: DNA footprinting is a well-established technique in which a section of radio-labelled DNA (SEQ ID NO:6) is incubated with a chemical or biological cleaving agent, in the presence and absence of a putative binding ligand. Regions of ligand binding will show as blanks in the ‘ladder’. Knowing the DNA sequence, the binding sites can then be deduced, from the location of these blanks. The sequence shown in FIGS. 7 and 8 is MS1, which contains all possible four-base-pair binding sites. The procedure used in the footprinting experiments was analogous to that described in J. Med. Chem. 43, 3257 (2000), the disclosures of which document are hereby incorporated by reference. In an analogous manner to the procedure described in J. Med. Chem. 43, 3257 (2000), the MS1 sequence was labelled at the 3′-end with [α-^32P]dATP using reverse transcriptase. The agent used to cleave the radio-labelled DNA was DNase I. Bases that fall within the “footprint” of a compound are indicated by XX . . . XX underneath the sequence. The binding domain that has been confirmed by capillary electrophoresis is indicated by XX. XX.

[3] = test system: double-stranded DNA oligonucleotide CCACTAGTGG (SEQ ID NO:5); assay: Capillary electrophoresis ligand-DNA binding study; details: with CCACTAGTGG (SEQ ID NO:5)
From the text: (§4) Capillary electrophoresis was used to study of ligand-DNA binding (see: (i) Hamdan, I. I.; Skellern, G. G.; and Waigh, R. D. “Separation of pd(GC)12 from pd(AT)12 by free solution capillary electrophoresis”, J. Cromatogr. A. 806, 165-168 (1998); (ii) Hamdan, I. I.; Skellern, G. G.; and Waigh, R. D. “Use of capillary electrophoresis in the study of ligand-DNA interactions”, Nucleic Acids Research 26, 3053-3058 (1998); (iii) Hamdan, I. I.; Skellern, G. G.; and Waigh, R. D. “Ligand binding to oligonucleotides” Methods in Molecular Biology, Vol. 163, “Capillary Electrophoresis of Nucleic acids”, Vol 2, pages 379-391, K. R. Mitchelson and J. Cheng Eds., Humana Press, New Jersey, (2000)).
as §1, §2, §3

[4] = test system: mixture of double-stranded DNA oligonucleotides AAATTATATTAT (SEQ ID NO:1) and GGACTAGTCG (SEQ ID NO:4); assay: Capillary electrophoresis competitive binding study; details: AAATTATATTAT dodecamer versus GGACTAGTCG decamer
From the text: as §4, §1, §2
This ratio corresponds to the binding ratio. […]

[5] = test system: NFκB protein-DNA complexes; assay: NFκB DNA-binding assay (gel shift) with macrophage nuclear extracts; format: biochemical, Murine; details: 1 μL of a 1 mM solution, final volume 10 μL; nuclear protein from macrophages exposed to LPS
Experimental: Murine macrophages (obtained and cultured as described in Cell. Signal. 11(7), 491 (1999), hereinafter referred to as “Reference 1”, the disclosures of which document are hereby incorporated by reference) were exposed to vehicle (see Reference 1) or 1 μg/mL lipopolysaccharide (LPS; the active component of gram-negative endotoxin and a strong activator of the Nuclear Factor kappa B (NFκB) pathway; the particular LPS being obtained from Salmonella minnesota) for 1 hour and nuclear extracts prepared by standard procedures (see Brit. J. Pharmacol. 134, 393 (2001), hereinafter referred to as “Reference 2”, the disclosures of which document are hereby incorporated by reference).
Aliquots of compounds (1 μL of a 1 mM solution) were incubated with 1 μL (0.035 pmol) of a ^32P-labelled 20 bp double-stranded DNA oligonucleotide (representing the consensus binding sequence for NFκB proteins (see Reference 2 and Brit. J. Pharmacol. 134, 1629-1638 (2001), the disclosures of which latter document are hereby incorporated by reference)) for 30 min at room temperature. […] The formation of NFκB protein-DNA complexes and potential inhibition of complex formation in the presence of the above compounds was detected by autoradiography. […]

N-[3-(Dimethylamino)propyl]-2-({[4-({[4-(formylamino)-1-methyl-1H-pyrrol-2-yl]carbonyl}amino)-1-methyl-1H-pyrrol-2-yl]carbonyl}amino)-5-isopropyl-1,3-thiazole-4-carboxamide [Example 3]
affinity for the sequence [1]: strong affinity | footprint on MS1 sequence [2]: binding to only one site on the MS1 sequence | binding result [3]: identical with that achieved with the sequence in FIG. 3 | relative affinity in competitive binding [4]: greater affinity for the decamer ACTA sequence | effect on LPS-stimulated NFκB-DNA binding activity [5]: appeared to inhibit
